From article doi:10.1101/2023.08.21.552681v1 (biorxiv, 2023)
Where two headings read alike, the source gives them in different places.

Assays:
[1] = target: T1, ctdWDR91 (Homo sapiens, UniProt A4D1P6); test: biochemical
T1 sequence (A4D1P6 392-747): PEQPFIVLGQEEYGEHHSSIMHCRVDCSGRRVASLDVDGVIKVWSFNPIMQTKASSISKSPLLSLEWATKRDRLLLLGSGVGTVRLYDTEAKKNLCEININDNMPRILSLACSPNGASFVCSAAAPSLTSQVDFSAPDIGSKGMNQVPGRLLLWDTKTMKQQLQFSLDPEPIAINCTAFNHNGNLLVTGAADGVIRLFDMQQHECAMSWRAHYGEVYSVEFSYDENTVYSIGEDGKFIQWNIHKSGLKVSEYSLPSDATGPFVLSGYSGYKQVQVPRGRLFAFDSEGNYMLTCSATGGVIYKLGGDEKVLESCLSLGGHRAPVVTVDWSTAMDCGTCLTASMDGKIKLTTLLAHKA

[2] = target: T1, ctdWDR91; test: biochemical; remark: listed apart in the source

| Structure (SMILES) | Kd [1] [µM] | Kd [2] [µM] |
| --- | --- | --- |
| O=C(NCCc1ccc(Cl)cc1)c1ccc(N2CCC(O)C2)cc1 (stereo not drawn) [DRGG001935a] | > 45 |  |
| O=C(NCC1CCN(c2ccc(Cl)cc2)C1)c1ccc(C(=O)NC2CC2)cc1 (stereo not drawn) [DRGG001936a] | > 45 |  |
| CC1CCN(c2ccc(C(=O)NC3(C)Cc4ccccc4C3)cc2)C1 (stereo not drawn) [DRGG001937a] | > 45 |  |
| O=C(NCC1CCN(c2ccc(F)cc2)C1)c1ccc(N2CCC(O)C2)cc1 (stereo not drawn) [DRGG001938a] | > 45 |  |
| Nc1ncnc2cc(C(=O)NC3(c4ccc(Cl)cc4)COC3)ccc12 [DRGG001943a] | 37 |  |
| O=C(NCC1CCN(c2ccc(Cl)cc2)C1)c1ccc(OC2CCOC2)cc1 (stereo not drawn) [DRGG001945a] | > 45 |  |
| O=C1Cc2c(cccc2C(=O)NC2(c3ccc(Cl)cc3)COC2)N1 [DRGG001947a] | > 45 |  |
| O=C(NC1(c2ccc(Cl)cc2)COC1)c1cncc2cnccc12 [DRGG001948a] | > 45 |  |
| O=C(NCC1CCN(c2ccc(Cl)cc2)C1)c1ccc(F)cc1 (stereo not drawn) [DRGG001950a] | > 45 |  |
| O=C(CNC(=O)c1ccc(O)cc1)NCC1CCN(c2ccc(Cl)cc2)C1 (stereo not drawn) [DRGG001951a] | > 45 |  |
| O=C(NC1(Cc2ccccc2)COC1)c1ccc(N2CCC(O)C2)cc1 (stereo not drawn) [DRGG001952a] | > 45 |  |
| Cc1ccc(N2CCC(NC(=O)c3ccc(Cl)cc3)C2)cc1 (stereo not drawn) [DRGG001953a] | > 45 |  |
| O=C(c1ccc(N2CCC(O)C2)cc1)N1Cc2ccc(Cl)cc2C1 (stereo not drawn) [DRGG001955a] | > 45 |  |
| NC(=O)C1CCCN(c2ccc(C(=O)NC(c3ccc(Cl)cc3)C3CC3)cc2)C1 (stereo not drawn) [DRGG001957a] | 16 |  |
| O=C(N[C@@H]1CCN(C2CC2)[C@H]1c1ccccc1)c1ccc(N2CCC(O)C2)cc1 (stereo partly drawn) [DRGG001958a] | > 45 |  |
| O=C(NCC1CCN(c2ccc(Cl)cc2)C1)c1ccc(C2(O)COC2)cc1 (stereo not drawn) [DRGG001959a] | > 45 |  |

| Structure (SMILES) | Kd [1] [µM] | Kd [2] [µM] |
| --- | --- | --- |
| O=C(NCC1CCN(c2ccc(F)cc2)C1)c1ccc(Cl)cc1 (stereo not drawn) [DRGG001960a] | > 45 |  |
| O=C(NC(CCO)c1ccc(Cl)cc1)c1ccc(N2CCC(O)C2)cc1 (stereo not drawn) [DRGG001961a] | 14 |  |
| O=C(CNC(=O)c1ccc(F)cc1)NC1CCN(c2ccc(Cl)cc2)C1 (stereo not drawn) [DRGG001962a] | > 45 |  |
| O=C(NC1CCN(c2ccc(Cl)cc2)C1)c1ccc(N2CCC(O)C2)cc1 (stereo not drawn) [DRGG001963a] | > 45 |  |
| O=C(N[C@@H]1CC2(CCC2)Oc2ccc(F)cc21)c1ccc(N2CCC(O)C2)cc1 (stereo partly drawn) [DRGG001964a] | > 45 |  |
| CC1CCN(c2ccc(C(=O)NCC3(c4ccc(F)cc4)CC3)cc2)C1 (stereo not drawn) [DRGG001965a] | > 45 |  |
| O=C(NC1CCN(c2ccc(Cl)cc2)C1)c1ccc(C2(O)COC2)cc1 (stereo not drawn) [DRGG001966a] | > 45 |  |
| O=C(NCC1CCN(Cc2ccccc2)C1)c1ccc(N2CCC(O)C2)cc1 (stereo not drawn) [DRGG001968a] | > 45 |  |
| O=C(NC1(c2ccc(Cl)cc2)COC1)c1ccc(CC2CC2)cc1 [DRGG001970a] | > 45 |  |
| O=C(NC1(c2ccc(Cl)cc2)COC1)c1ccc(OCC2CC2)cc1 [DRGG001971a] | > 45 |  |
| O=C(NC1CCN(c2ccc(Cl)cc2)C1)c1ccc2c(c1)CC2 (stereo not drawn) [DRGG001973a] | > 45 |  |
| O=C(NC1CC2(CCC2)Oc2ccccc21)c1ccc(N2CCC(O)C2)cc1 (stereo not drawn) [DRGG001975a] | > 45 |  |
| O=C(NC1CCN(c2ccc(F)cc2)C1)c1ccc(Cl)cc1 (stereo not drawn) [DRGG001976a] | > 45 |  |
| O=C(Nc1cccc2cnccc12)c1ccc(N2CCC(O)C2)cc1 (stereo not drawn) [DRGG001979a] | > 45 |  |
| O=C(NC1(c2ccc(Cl)cc2)CC1)c1ccc(N2CCC(O)C2)cc1 (stereo not drawn) [DRGG001980a] | > 20 |  |

Next, values leading:

| Kd [1] [µM] | Kd [2] [µM] | Structure (SMILES) |
| --- | --- | --- |
| > 45 |  | O=C(NC1CCc2cc(Cl)ccc21)c1ccc(N2CCC(O)C2)cc1 (stereo not drawn) [DRGG001981a] |
| > 45 |  | O=C(NC1(c2ccc(Cl)cc2)COC1)c1cccc(N2CCCC2)c1 [DRGG001982a] |
| > 45 |  | O=C(NCC1CCN(c2ccc(Cl)cc2)C1)c1ccc(CN2CCOCC2)cc1 (stereo not drawn) [DRGG001983a] |
| > 45 |  | O=C1CCC(c2ccc(C(=O)NC3CCN(c4ccc(Cl)cc4)C3)cc2)N1 (stereo not drawn) [DRGG001984a] |
| > 45 |  | O=C(Nc1cccc2c1CN(C1CC1)C2)c1ccc(N2CCC(O)C2)cc1 (stereo not drawn) [DRGG001985a] |
| > 45 |  | O=C(N[C@@H]1C[C@H]1c1ccc(Cl)cc1)c1ccc(N2CCC(O)C2)cc1 (stereo partly drawn) [DRGG001986a] |
| > 45 |  | O=C(NCC1CCN(c2ccc(Cl)cc2)C1)c1ccc(C2CCCOC2)cc1 (stereo not drawn) [DRGG001987a] |
| > 45 |  | O=C(NC1(c2ccc(Cl)cc2)COC1)c1ccc(N2CCCC2)cc1 [DRGG001988a] |
| > 45 |  | Cc1nc2sccn2c1C(=O)NC1(c2ccc(Cl)cc2)COC1 [DRGG001989a] |
| > 45 |  | C[C@@H](NC(=O)c1ccc(N2CCC(O)C2)cc1)c1ccc2c(c1)CCCC2 (stereo partly drawn) [DRGG001990a] |
| > 45 |  | O=C(NC1(c2ccc(Cl)cc2)COC1)C1CCN(c2ccccc2)C1 (stereo not drawn) [DRGG001991a] |
| > 45 |  | O=C(NC1CCN(c2ccc(Cl)cc2)C1)c1ccc(CN2CCCC2=O)cc1 (stereo not drawn) [DRGG001992a] |
| > 45 |  | N#CC1(c2ccc(C(=O)NCC3CCN(c4ccc(Cl)cc4)C3)cc2)CC1 (stereo not drawn) [DRGG001993a] |
| > 45 |  | CC1(c2ccc(C(=O)NC3CCN(c4ccc(F)cc4)C3)cc2)CC1 (stereo not drawn) [DRGG001994a] |
| > 45 |  | O=C(NCC1CCN(c2ccc(F)cc2)C1)C1(c2ccc(Cl)cc2)CCOCC1 (stereo not drawn) [DRGG001995a] |
| > 45 |  | O=C(NCC1CCN(c2ccc(Cl)cc2)C1)c1cccc(C2(O)COC2)c1 (stereo not drawn) [DRGG001996a] |
| 22 |  | NC(=O)C1CCCN(c2ccc(C(=O)NC(CCO)c3ccc(Cl)cc3)cc2)C1 (stereo not drawn) [DRGG001997a] |
| > 45 |  | CC(NC(=O)c1ccc(N2CCC(O)C2)cc1)c1cccc(N2CCCC2)c1 (stereo not drawn) [DRGG001998a] |

| Kd [1] [µM] | Kd [2] [µM] | Structure (SMILES) |
| --- | --- | --- |
|  | > 45 | O=C1NCC2(CC2)C(=O)N1CC1CCN(c2cccc(Br)c2)C1 (stereo not drawn) [MRGG045328a] |
|  | > 45 | COc1ccc(CC(=O)N(C)Cc2cccc(N3CCCC3)c2)cc1[N+](=O)[O-] [MRGG045329a] |
|  | > 45 | Cc1cc(O)c(O)cc1C(=O)N[C@H]1CC(=O)N(C)[C@@H]1c1ccc(Cl)cc1 [MRGG045330a] |
|  | > 45 | O=c1[nH]nc2n1CCN(Cc1ccccc1CN1CCn3c(n[nH]c3=O)C1)C2 [MRGG045331a] |
|  | > 45 | O=C1CC(c2nccs2)NC(=O)N1CC1CCN(c2ccc(Cl)cc2)C1 (stereo not drawn) [MRGG045332a] |
|  | > 45 | N#Cc1cc(C#N)cc(CNc2cccc(CN3CCCC3=O)c2)c1 [MRGG045333a] |
|  | > 45 | CC(C)(C)OC(=O)N1CCCC1C1CCN(C2CC2)C1 (stereo not drawn) [MRGG045334a] |
|  | > 45 | O=C(NC(CCO)c1ccc(Cl)c(Cl)c1)c1ccc2c(c1)NC(=O)C1CCCN21 (stereo not drawn) [MRGG045335a] |
|  | > 45 | CN1CC(N(C)C(=O)CCc2ccc3cc(O)c(O)cc3c2)C1 [MRGG045336a] |
|  | > 45 | c1ccc(CN2CCC3(CCN(C4CC4)C3)C2)cc1 (stereo not drawn) [MRGG045337a] |
|  | > 45 | CC1CN(C2CC2)CC1NC1CCN(C2CC2)CC1 (stereo not drawn) [MRGG045338a] |
|  | > 45 | CC1CC(NCC2CCCCCC2)CN1C1CC1 (stereo not drawn) [MRGG045339a] |
|  | > 45 | Cc1nc2sccn2c1C(=O)N(C)Cc1cccc(F)c1 [UBGG013392b] |
|  | > 45 | CN(CCc1ccccc1)C(=O)Cc1ccc(O)c(O)c1 [UBGG028860b] |
|  | > 45 | NC(=O)NC(CC(=O)Nc1ccc(N2CCCC2)cc1)c1ccc(Cl)cc1 (stereo not drawn) [XSGG048242e] |
|  | > 45 | CC(NC(=O)CCNC(=O)c1ccc(Br)cc1)c1ccc(Cl)cc1 (stereo not drawn) [XSGG051538e] |
|  | > 45 | O=C(NCc1ccc(N2CCCC2)cc1)c1ccc(F)cc1 [XSGG119722b] |
